Measurements from patent publication US7812042B2, “Pharmaceutical compositions and therapeutic applications for the use of a novel vitamin B12 derivative, N-acetyl-L-cysteinylcobalamin” (priority 2006, dated 2010).
Values joined by “and” are separate entries in the source; they are usually repeats but may differ in a detail not shown here. Equal entries are not always repeated. Structures can show the parent of a compound that is named as a salt.

What was measured:
SK-HEP-1 cells [1] = conditions: human, 2 h
Method: Cell viability was determined by MTS® assay. […] Cell viability was determined by MTS® assay.

SK-HEP-1 cells [2] = assay: NACCbl protection from homocysteine with Hsp32/Hsp70 inhibited by Sn(IX) protoporphyrin, quercitin or siRNA (MTS assay); assay type: cell-based, Human; conditions: where named, NACCbl 30 μM pre-treatment two hours with/without Sn(IX)PP, quercetin, replicates 1-6, listed as Hcy
Description: siRNAs for human HO-1 were synthesised in 2′-deprotected, duplexed, desalted and purified form by Dharmacon Research Inc., published sequences from Zhang et al., (Zhang, Shan et al. 2004). Human Hsp70 primers were from proprietary sequences, and all control non-targeting primer sequences were also synthesised by Dharmacon Research Inc.
Transfection was optimised using a standard siControl Tox protocol. All transfection experiments included non-targeted siRNA.
Cells were trypsinized and plated into 12- or 96-well plates at cell density of 2×10^5, then incubated for 24 hours until adherent. Complexed siRNA and transfection agent at 100 nm was added directly to each experimental well. Plates were incubated at 37° C. for 32.5 hours for mRNA gene analysis experiments or 72 hours for protein analysis by Western Blot.
Complexed siRNA and transfection agent was added to each well of either 12- or 96-well plates. Cells were then trypsinized and added directly into each test well at cell density of 2×10^5. Plates were incubated at 37° C. for 32.5 hours for mRNA gene analysis experiments or 72 hours for protein analysis by Western Blot.
Hsp32 was inhibited using either Sn (IX) protoporhyrin or using an siRNA which specifically knocks out Hsp32. Hsp70 was inhibited using quercitin or using an siRNA which specifically knocks out Hsp70. In addition, two methods were used to inhibit both Hsp32 and Hsp70: chemically Sn (IX) protoporphyrin plus quercitin was used; and then, directly, a combination of the siRNA for both genes was used simultaneously.

Hsp32 = Hsp32 gene expression in SK-HEP-1 cells (RT-PCR, densitometry); assay type: cell-based, Human; conditions: homocysteine 30 μM, folate 30 μM (2 hr), Sn(IX) protoporphyrin 25 μM, quercitin 15 μM
Method: (§1) Cells were plated into 6-, 12-, or 24-well cell culture clusters, at 2×10^3, 2×10^5, or 1×10^5 cells per well and incubated until 90% confluent. Treatments were applied as above.
(§2) Following incubation, cells were subjected to mRNA extraction followed by cDNA synthesis for each sample under test. Polymerase chain reaction cDNA templates were prepared for simplex PCR protocol. PCR products were then visualized using a UV Transilluminator and images captured using a Kodak ID gel imaging system. Densitometry and statistical analysis was then performed on each gene expression band image using PSP® v 10.0 running under Windows XP®.
(§3) mRNA extraction was performed using the Quickprep micro mRNA Purification Kit. Following incubation of cells post-treatment, the media was removed from the cells, adherent cells were re-suspended in 0.4 ml extraction buffer and 0.8 ml elution buffer at 65° C. was added.
A reaction mixture was prepared in individual microcentrifuge tubes containing 2 cDNA synthesis beads, 32 μl of the mRNA solution and 1 μl of pd(N)6. This mixture was incubated at 37° C. in a water bath for 60 minutes. After incubation, 27 μl of RNase-free DEPC treated water was added to each tube to make a total volume 60 μl. cDNA samples were prepared in duplicate. Sample 1 was used immediately in RT-PCR protocol. Sample 2 was prepared for qPCR protocol by the addition of 150 μl of 95% ice-cold ethanol and stored at −20° C.
Microcentrifuge tubes from puReTaq™Ready-To-Go™ PCR Beads containing one PCR bead were labeled for each sample required. Added to the PCR bead were 17 μl of RNase-free DEPC treated water, 1 μl sense primer, 1 μl anti-sense primer and 5 μl of the cDNA solution. RT-PCR conditions were as follows: Hsp70 and β-actin, pre-treatment step, 94° C. for 1 minute, followed by denaturing at 92° C. for 1 minute, annealing at 60° C. for 1 minute and extension at 72° C. for 1 minute. Total cycles, 30, post-treatment was then carried out at 72° C. for 10 minutes. For Hsp32, pre-treatment step, 95° C. for 2 minutes, followed by denaturing at 94° C. for 30 seconds, annealing at 58° C. for 1 minute and extension at 72° C. for 1 minute. Total cycles 45, post treatment was then carried out at 72° C. for 10 minutes. Following RT-PCR, samples were stored at −20° C.
Amplification products were separated on a 1.8% agarose gel (m/v) in TAE buffer. The size of the PCR products was determined by comparison to DNA fragments of a well-defined size; therefore, 5 μl of the DNA Ladder was carefully pipetted into the first well of the gel. Successive 10 μl of each PCR sample was then pipetted into subsequent wells on the agarose gel. The gel was connected to the Power Pack and run at 100V for 30 minutes.
Gels were visualised on a UV Transilluminator. Photographs were stored using a Kodak Digital camera system fitted with a UV filter set connected to a PC. Images were then transferred to the Kodak ID gel imaging system. Densitometry was performed on each gene expression band using PSP™ v10 running under Windows XP®.
Experiments were conducted using Hsp32 and Hsp 70 gene expression as the basis for study. […] (all treatments for 2 hours).

Hsp70 = conditions: SK-HEP-1; homocysteine 30 μM, folate 30 μM (2 hr), quercitin 15 μM
Method: as §1, §2, §3
A reaction mixture was prepared in individual microcentrifuge tubes containing 2 cDNA synthesis beads, 32 μl of the mRNA solution and 1 μl of pd(N)6. This mixture was incubated at 37° C. in a water bath for 60 minutes. After incubation, 27 μl of RNase-free DEPC treated water was added to each tube to make a total volume 60 μl. cDNA samples were prepared in duplicate. Sample 1 was used immediately in RT-PCR protocol.
Microcentrifuge tubes from puReTaq™Ready-To-Go™ PCR Beads containing one PCR bead were labeled for each sample required. Added to the PCR bead were 17 μl of RNase-free DEPC treated water, 1 μl sense primer, 1 μl anti-sense primer and 5 μl of the cDNA solution. RT-PCR conditions were as follows: Hsp70 and β-actin, pre-treatment step, 94° C. for 1 minute, followed by denaturing at 92° C. for 1 minute, annealing at 60° C. for 1 minute and extension at 72° C. for 1 minute. Total cycles, 30, post-treatment was then carried out at 72° C. for 10 minutes. […]
The size of the PCR products was determined by comparison to DNA fragments of a well-defined size; therefore, 5 μl of the DNA Ladder was carefully pipetted into the first well of the gel. […]

SK-HEP-1 cells [3] = assay: Protection of endothelial cells from homocysteine-induced cell death (MTS assay, absorbance at 490 nm; includes comparison of NACCbl, NAC, cyanocobalamin+NAC, free thiols, other cobalamins, folate); assay type: cell-based, Human; conditions: for Absorbance at 490 nm (n = 6): replicates Y1-Y6, listed as Hcy
Method: The effect of a constant concentration of NACCbl and GSCbl to protect cells against variable concentrations of homocysteine was assessed. […] Cell viability was determined by MTS® assay. Data shown in FIG. 4 are representative of means ±SE of 6 independent samples. FIG. 4 illustrates that NACCbl (▪) and GSCbl (▴) protect endothelial cells from the effect of homocysteine. […] Cell viability was determined by MTS® assay. […] There was a decrease in protection as homocysteine concentration increased, but there was still ˜60% survival at 50 μM homocysteine.
The data was normalized (log 2 and log 10) as shown in FIGS. 16 and 17 and Tables 16 and 17, respectively, below.

SK-HEP-1 cells [4] = assay: Protection from apoptosis induced by homocysteine (Caspase-3 activity); assay type: cell-based, Human; conditions: 30 μM pre-treatment two hours, then 30 μM homocysteine two hours
Method: Caspase 3 is activated when cells undergo apoptosis. Caspase-3 assay is a standard for apoptosis assay. Homocysteine is a known inducer of apoptosis. Cells were cultured in 96-well plates for 24 hours and then treated with reagents under test conditions. Cytotoxic agents, H2O2 and etoposide were added to negative control wells. The assay was performed according to the manufacturer's protocol, as follows: Cells were re-suspended in 100 μl of clear media and 50 μl of Caspase-3 substrate solution was immediately added to each test well. […] Cell viability was determined by MTS® assay. […] Cell viability was determined by MTS® assay.

[5] = Decomposition of thiolatocobalamins in PBS at 37° C. monitored by UV/Vis spectrophotometry; assay type: physicochemical; conditions: decomposition in PBS at 37° C.
Method: The decomposition of GSCbl, NACCbl, and HcyCbl in PBS at 37° C. was monitored by UV/Vis spectrophotometry.

methionine synthase = molecular target: T1, methionine synthase (Oryctolagus cuniculus, UniProt G1SXW3); conditions: rabbit spleen extracts; cited from earlier work
T1 construct: methionine synthase activity in rabbit spleen extracts; from tissue; host or cells: rabbit spleen extracts
T1 sequence (G1SXW3 1-1218): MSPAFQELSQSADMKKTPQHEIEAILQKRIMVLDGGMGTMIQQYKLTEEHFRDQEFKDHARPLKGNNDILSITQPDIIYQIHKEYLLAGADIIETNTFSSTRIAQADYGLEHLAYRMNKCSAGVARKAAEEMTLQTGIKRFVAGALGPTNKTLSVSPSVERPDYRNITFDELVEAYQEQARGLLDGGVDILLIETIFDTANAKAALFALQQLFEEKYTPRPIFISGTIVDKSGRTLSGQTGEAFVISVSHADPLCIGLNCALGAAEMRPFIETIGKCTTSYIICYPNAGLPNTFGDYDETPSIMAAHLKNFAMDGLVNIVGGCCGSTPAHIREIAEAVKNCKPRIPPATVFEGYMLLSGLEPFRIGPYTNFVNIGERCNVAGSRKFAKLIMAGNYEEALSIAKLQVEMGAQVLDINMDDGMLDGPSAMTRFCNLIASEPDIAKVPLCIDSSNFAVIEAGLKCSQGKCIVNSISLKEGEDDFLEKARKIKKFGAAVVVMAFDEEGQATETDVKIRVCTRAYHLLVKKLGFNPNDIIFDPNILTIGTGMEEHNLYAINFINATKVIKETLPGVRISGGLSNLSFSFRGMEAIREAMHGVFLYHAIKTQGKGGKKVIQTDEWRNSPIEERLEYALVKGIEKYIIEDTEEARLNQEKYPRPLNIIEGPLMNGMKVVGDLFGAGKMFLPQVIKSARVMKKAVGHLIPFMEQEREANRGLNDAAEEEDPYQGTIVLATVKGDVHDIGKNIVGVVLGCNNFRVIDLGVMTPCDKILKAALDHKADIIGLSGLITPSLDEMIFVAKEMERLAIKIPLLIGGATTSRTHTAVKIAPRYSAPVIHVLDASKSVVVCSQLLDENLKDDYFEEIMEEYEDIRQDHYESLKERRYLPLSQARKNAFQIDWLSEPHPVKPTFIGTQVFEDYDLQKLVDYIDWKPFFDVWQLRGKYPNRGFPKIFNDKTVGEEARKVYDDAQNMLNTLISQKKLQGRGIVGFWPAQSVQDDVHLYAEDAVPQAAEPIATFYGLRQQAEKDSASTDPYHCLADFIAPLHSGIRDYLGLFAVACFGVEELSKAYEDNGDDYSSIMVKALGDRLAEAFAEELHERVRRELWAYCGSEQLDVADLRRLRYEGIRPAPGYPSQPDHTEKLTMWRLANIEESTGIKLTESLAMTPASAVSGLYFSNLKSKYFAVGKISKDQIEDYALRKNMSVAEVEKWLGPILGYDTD

SK-HEP-1 cells [6] = assay: Protection of endothelial cells from H2O2-induced cell death (MTS assay); assay type: cell-based, Human; conditions: 2 hours pre-incubation, then 25 μM H2O2 24 hours
Method: The effect of increasing concentrations of NACCbl and GSCbl to protect endothelial cells from the effect of H2O2 was assessed. […] Cell viability was determined by MTS® assay. […] Cell viability was determined by MTS® assay. […] Cell viability was determined by MTS® assay.

SK-HEP-1 cells [7] = assay: Effect of high concentrations of NACCbl and GSCbl on SK-HEP-1 cells (MTS assay); assay type: cell-based, Human; design: cell viability (MTS), raw readings (FIG. 13): reference not given here; conditions: 24 hours; for cell viability (MTS), raw readings (FIG. 13): 3 replicates

For NC(CCS)C(=O)O (racemic) [Homocysteine, DL-Homocysteine], the “concentration achieving greater than 90% death” value (SK-HEP-1 cells [1]) was 25 µM, the “concentration that killed cells (p<0.001)” value (SK-HEP-1 cells [1]) was ≥ 5 µM and the “cell viability (MTS), raw readings (FIG. 11)” value (“cell viability … (FIG. 11)” below) (SK-HEP-1 cells [2]; Hcy 25 (μM) two hours) was 0.74. The “cell viability … (FIG. 11)” value (SK-HEP-1 cells [2]; Hcy 50 (μM) two hours) was 0.77, the “cell viability … (FIG. 11)” value (SK-HEP-1 cells [2]; Hcy 100 (μM) two hours) was 0.51 and the “cell viability … (FIG. 11)” value (SK-HEP-1 cells [2]; Hcy 200 (μM) two hours) was 0.33 and 0.39. The “effect on Hsp32 gene expression” value (Hsp32) was “increase in expression”, the “effect on Hsp70 gene expression” value (Hsp70) was “increase in expression” and the “Absorbance at 490 nm, Mean (n = 6)” value (SK-HEP-1 cells [3]; Conc. Hcy 200.000 (μM), NACCbl 30 μM, NAC 75 μM) was 0.360. For the same compound, the “normalized cell viability (MTS), percent, mean of 6” value (SK-HEP-1 cells [3]; Conc. Hcy 200.000, NACCbl 30 μM, NAC 75 μM) was −0.033, the “Absorbance at 490 nm (n = 6)” value (SK-HEP-1 cells [3]; Conc. of Hcy 25.000, NACCbl 30 μM, NAC 75 μM) was 0.740 and the “Absorbance at 490 nm (n = 6)” value (SK-HEP-1 cells [3]; Conc. of Hcy 50.000, NACCbl 30 μM, NAC 75 μM) was 0.770. The “Absorbance at 490 nm (n = 6)” value (SK-HEP-1 cells [3]; Conc. of Hcy 100.000, NACCbl 30 μM, NAC 75 μM) was 0.510 and the “Absorbance at 490 nm (n = 6)” value (SK-HEP-1 cells [3]; Conc. of Hcy 200.000, NACCbl 30 μM, NAC 75 μM) was 0.330 and 0.390.
In the case of C/C1=C2N=C(/C=C3N=C(/C(C)=C4\[N-]C(C(CC(N)=O)C4(C)CCC(=O)NCC(C)OP(=O)([O-])OC4C(CO)OC(n5cnc6cc(C)c(C)cc65)C4O)C4(C)N=C1C(CCC(N)=O)C4(C)CC(N)=O)C(CCC(N)=O)C\3(C)C)C(CCC(N)=O)C/2(C)CC(N)=O.NC(CCC(=O)NC(C[S-])C(=O)NCC(=O)O)C(=O)O.[Co+3] (stereo not drawn) [GSCbl, Glutathionylcobalamin, reference compound], the “effect on Hsp32 gene expression” value (Hsp32) is reported as “induce Hsp32”, the “protection against apoptosis induced by homocysteine” value (SK-HEP-1 cells [4]) is reported as “total protection” and the t1/2 [5] is reported as “No decomposition within 20 hours”. For the same compound, the “promotion of methionine synthase activity” value (methionine synthase) was “more active than other cobalamins in promoting methionine synthase activity”, the “concentration required to achieve >80% survival” value (SK-HEP-1 cells [6]) was 100 µM and the “cell death compared with NACCbl” value (SK-HEP-1 cells [7]; above 0.2 mM concentration) was “caused greater cell death than NACCbl”. The “cell viability (MTS), raw readings (FIG. 13)” value (shortened to “cell viability … (FIG. 13)”) (SK-HEP-1 cells [7]; compound conc. 0.61 (μM scale)) was 2.554 and 2.376 and 2.53, the “cell viability … (FIG. 13)” value (SK-HEP-1 cells [7]; compound conc. 1.22 (μM scale)) was 2.347 and 2.433 and 2.503 and the “cell viability … (FIG. 13)” value (SK-HEP-1 cells [7]; compound conc. 2.441 (μM scale)) was 2.527 and 2.434 and 2.46. For the same compound, the “cell viability … (FIG. 13)” value (SK-HEP-1 cells [7]; compound conc. 4.882 (μM scale)) was 2.543 and 2.528 and 2.519, the “cell viability … (FIG. 13)” value (SK-HEP-1 cells [7]; compound conc. 9.765 (μM scale)) was 2.532 and 2.476 and 2.42 and the “cell viability … (FIG. 13)” value (SK-HEP-1 cells [7]; compound conc. 19.531 (μM scale)) was 2.553 and 2.476 and 2.42. For the same compound, the “cell viability … (FIG. 13)” value (SK-HEP-1 cells [7]; compound conc. 39.062 (μM scale)) was 2.492 and 2.484 and 2.468, the “cell viability … (FIG. 13)” value (SK-HEP-1 cells [7]; compound conc. 78.125 (μM scale)) was 2.444 and 2.406 and 2.402 and the “cell viability … (FIG. 13)” value (SK-HEP-1 cells [7]; compound conc. 156.25 (μM scale)) was 2.407 and 2.37 and 2.318. The “cell viability … (FIG. 13)” value (SK-HEP-1 cells [7]; compound conc. 312.5 (μM scale)) was 2.306 and 2.204 and 2.138, the “cell viability … (FIG. 13)” value (SK-HEP-1 cells [7]; compound conc. 625 (μM scale)) was 2.197 and 1.912 and 1.787 and the “cell viability … (FIG. 13)” value (SK-HEP-1 cells [7]; compound conc. 1250 (μM scale)) was 1.973 and 1.846 and 1.71. For the same compound, the “cell viability … (FIG. 13)” value (SK-HEP-1 cells [7]; compound conc. 2500 (μM scale)) was 1.775 and 1.81 and 1.896, the “cell viability … (FIG. 13)” value (SK-HEP-1 cells [7]; compound conc. 5000 (μM scale)) was 1.728 and 1.67 and 1.623 and the “cell viability … (FIG. 13)” value (SK-HEP-1 cells [7]; compound conc. 10000 (= 10 mM)) was 1.322 and 1.342 and 1.366. The survival (SK-HEP-1 cells [3]; 30 μM cobalamin pre-incubation two hours, then 50 μM homocysteine two hours) was ~60%, the “concentration required for >80% survival protection” value (SK-HEP-1 cells [3]; 2 hours pre-incubation, then 30 μM homocysteine 24 hours) was 50 µM and the “protection against homocysteine-induced damage compared with free thiols” value (SK-HEP-1 cells [3]; Hcy 30 μM, NAC 45, GSH 100, NACCbl 12.5, GSCbl 15 μM, with or without folate 25 μM) was “superior to the free thiols”.
In the case of OO [H2O2, Hydrogen peroxide], the “concentration achieving greater than 90% death” value (SK-HEP-1 cells [1]) is reported as 12.5 µM and the “concentration sufficient to kill cultured endothelial cells (P<0.001)” value (SK-HEP-1 cells [1]) is reported as ≥ 3 μm.
CC1=C2N=C(C=C3N=C(C(C)=C4[N-]C(C(CC(N)=O)C4(C)CCC(=O)NCC(C)OP(=O)([O-])OC4C(CO)OC(n5cnc6cc(C)c(C)cc65)C4O)C4(C)N=C1C(CCC(N)=O)C4(C)CC(N)=O)C(CCC(N)=O)C3(C)C)C(CCC(N)=O)C2(C)CC(N)=O.NC(CC[S-])C(=O)O.[Co+3] [HcyCbl, D,L-homocysteinyl-cobalamin] showed a t1/2 [5] of 6.6 h.
For CC(=O)N[C@@H](CS)C(=O)O [NAC, N-Acetyl-L-Cysteine, reference compound], the “Absorbance at 490 nm, Mean (n = 6)” value (SK-HEP-1 cells [3]; Conc. Hcy 3.125 (μM), NACCbl 30 μM, NAC 75 μM) was 1.897.
With O.O.O=c1c(O)c(-c2ccc(O)c(O)c2)oc2cc(O)cc(O)c12 [Quercitin, 2-(3,4-Dihydroxyphenyl)-3,5,7-trihydroxy-4H-1-benzopyran-4-one dihydrate] the “effect on Hsp32 gene expression” value (Hsp32) was “does not inhibit Hsp32 gene expression” and the “effect on Hsp70 gene expression” value (Hsp70) was “inhibits Hsp70 gene expression”.
With C=CC1=C(C)c2cc3[n-]c(cc4[n-]c(cc5nc(cc1n2)C(C)=C5C=C)c(C)c4CCC(=O)O)c(CCC(=O)O)c3C.[Cl-].[Cl-].[Sn+4] [Sn (IX) protoporphyrin, 8,13-Bis(vinyl)-3,7,12,17-tetramethyl-21H,23H-porphine-2,18dipropionic acid tin(IV) dichloride] the “effect on Hsp32 gene expression” value (Hsp32) was “inhibited”.
For CN1c2c(nc(N)[nH]c2=O)NC[C@@H]1CNc1ccc(C(=O)N[C@@H](CCC(=O)O)C(=O)O)cc1 [folate, 5-Methyltetrahydrofolic acid disodium salt], the “effect on Hsp32 gene expression” value (Hsp32) was “increase in expression”, the “protection against apoptosis induced by homocysteine” value (SK-HEP-1 cells [4]) was “partial protection” and the “effect on Hsp70 gene expression” value (Hsp70) was “increase in expression”.
